In the supplement of paper PMC11061612:

Key:
Experiment in all cases: Bliss excess, mean over the matrix (fraction); higher = more synergy
[1] = system: NCI-H2009 (Lung Adenocarcinoma)
Procedure, shortened: (§1)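 After 24 hours at 37°C and 5% CO2 in 1536-well plates, cells in DMEM/F12 or RPMI plus 10% FBS received two-drug dose matrices for 72 hours. Viability came from CellTiter-Glo 2.0 luminescence and was scaled as inhibition, anchored at 0 by vehicle wells and at 1 by blank wells. Combination Emax is taken as the second-highest inhibition in the matrix, and Bliss excess as the observed combination effect less EA + EB − EA·EB, with EA and EB the single-agent effects.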

A375 (Melanoma) = system: A375 (Melanoma)
Procedure, shortened: as §1

[2] = system: L-363 (Plasma Cell Myeloma)
Procedure, shortened: as §1

HT-144 (Melanoma) = system: HT-144 (Melanoma)
Procedure, shortened: as §1

[3] = system: HT-3 (Cervical Carcinoma)
Procedure, shortened: as §1

[4] = system: SNU-1 (Gastric Carcinoma)
Procedure, shortened: as §1

[5] = system: NCI-H2023 (Non-Small Cell Lung Carcinoma)
Procedure, shortened: as §1

[6] = system: Daudi (Burkitt's Lymphoma)
Procedure, shortened: as §1

[7] = system: BC-1 (B-Cell Non-Hodgkin's Lymphoma)
Procedure, shortened: as §1

[8] = system: C2BBe1 (Colorectal Carcinoma)
Procedure, shortened: as §1

GCIY (Gastric Carcinoma) = system: GCIY (Gastric Carcinoma)
Procedure, shortened: as §1

[9] = system: COR-L105 (Lung Adenocarcinoma)
Procedure, shortened: as §1

[10] = system: KNS-62 (Squamous Cell Lung Carcinoma)
Procedure, shortened: as §1

[11] = system: SW1463 (Colorectal Carcinoma)
Procedure, shortened: as §1

[12] = system: MRK-nu-1 (Breast Carcinoma)
Procedure, shortened: as §1

[13] = system: RPMI-8402 (T-Lymphoblastic Leukemia)
Procedure, shortened: as §1

[14] = system: NCI-H1435 (Non-Small Cell Lung Carcinoma)
Procedure, shortened: as §1

[15] = system: GRANTA-519 (B-Cell Non-Hodgkin's Lymphoma)
Procedure, shortened: as §1

[16] = system: NCI-H1944 (Lung Adenocarcinoma)
Procedure, shortened: as §1

Row | Compound | Bliss excess [1] | Bliss excess (A375 (Melanoma)) | Bliss excess [2] | Bliss excess (HT-144 (Melanoma)) | Bliss excess [3] | Bliss excess [4] | Bliss excess [5] | Bliss excess [6] | Bliss excess [7] | Bliss excess [8] | Bliss excess (GCIY (Gastric Carcinoma)) | Bliss excess [9] | Bliss excess [10] | Bliss excess [11] | Bliss excess [12] | Bliss excess [13] | Bliss excess [14] | Bliss excess [15] | Bliss excess [16]
1 | CCN(CCO)CCCOc1ccc2c(Nc3cc(CC(=O)Nc4cccc(F)c4)[nH]n3)ncnc2c1 [AZD2811] + C[C@@H]1COCCN1C2=NC(=NC(=C2)C3(CC3)[S@](=N)(=O)C)C4=C5C=CNC5=NC=C4 [AZD6738] (first compound max 1 µM, 7x7, partner max 10 µM) | -0.0359 | -0.0573 | -0.0485 | -0.0711 | -0.0538 | 0.0129 | -0.0555 | 0.0457 | -0.1 | -0.0362 | -0.0326 | -0.0679 | -0.0546 | -0.0218 | -0.077 | -0.0312 | -0.0311 | -0.0269 | -0.0415
2 | CCN(CCO)CCCOc1ccc2c(Nc3cc(CC(=O)Nc4cccc(F)c4)[nH]n3)ncnc2c1 [AZD2811] + O=C(c1cc(Cc2n[nH]c(=O)c3ccccc23)ccc1F)N1CCN(C(=O)C2CC2)CC1 [Olaparib] (first compound max 1 µM, 7x7, partner max 10 µM) | 0.0113 | 0.0039 | 0.0025 | -0.0266 | 0.008 | 0.0233 | -0.0737 | 0.104 | -0.0401 | -0.0112 | -0.0066 | -0.0311 | -0.0171 | 0.0014 | -0.0037 | -0.0279 | 0.0111 | 0.0274 | 0.0069
3 | CN(CCO)CC[C@H](CSc1ccccc1)Nc1ccc(S(=O)(=O)NC(=O)c2ccc(N3CCC([C@@H](O)c4ccccc4-c4ccc(Cl)cc4)CC3)cc2)cc1S(=O)(=O)C(F)(F)F [AZD4320] + CN(C)CCCOc1ccc(-c2ccc3ncc4c(c3c2)n(C2CCOCC2)c(=O)n4C)cn1 [AZD0156] (first compound max 1 µM, 7x7, partner max 1 µM) | -0.0424 | -0.0357 | -0.0005 | -0.0032 | -0.0251 | 0.0192 | -0.0922 | -0.0133 | -0.0228 | -0.0443 | 0.0237 | -0.031 | -0.0566 | -0.06 | -0.0133 | 0.0188 | -0.0269 | 0.007 | -0.0289
4 | CN(CCO)CC[C@H](CSc1ccccc1)Nc1ccc(S(=O)(=O)NC(=O)c2ccc(N3CCC([C@@H](O)c4ccccc4-c4ccc(Cl)cc4)CC3)cc2)cc1S(=O)(=O)C(F)(F)F [AZD4320] + Cn1cnc2c(F)c(Nc3ccc(Br)cc3Cl)c(C(=O)NOCCO)cc21 [Selumetinib] (first compound max 1 µM, 7x7, partner max 3 µM) | -0.006 | -0.0112 | 0.0311 | 0.15 | 0.0308 | 0.0212 | 0.0178 | 0.0037 | 0.0573 | 0.0082 | 0.0199 | 0.0181 | 0.03 | 0.0106 | -0.0013 | -0.0351 | 0.0507 | 0.0155 | 0.0427
5 | Cc1c2c(nn1C)CSCc1cc(n(C)n1)CSc1cc(c3ccccc3c1)OCCCc1c(C(=O)O)n(C)c3c-2c(Cl)ccc13 [AZD5991] + C1CN(CCC1(C(=O)N[C@@H](CCO)C2=CC=C(C=C2)Cl)N)C3=NC=NC4=C3C=CN4 [Capivasertib] (first compound max 1 µM, 7x7, partner max 3 µM) | -0.0207 | -0.0192 | 0.0476 | 0.0582 | 0.0198 | -0.0176 | -0.0028 | 0.0353 | 0.0256 | -0.0214 | 0.0118 | -0.0019 | 0.0047 | -0.0085 | 0.0055 | 0.0508 | 0.0331 | -0.0295 | 0.0254
6 | Cc1c2c(nn1C)CSCc1cc(n(C)n1)CSc1cc(c3ccccc3c1)OCCCc1c(C(=O)O)n(C)c3c-2c(Cl)ccc13 [AZD5991] + C=CCn1c(=O)c2cnc(Nc3ccc(N4CCN(C)CC4)cc3)nc2n1-c1cccc(C(C)(C)O)n1 [AZD1775] (first compound max 1 µM, partner max 1 µM) | -0.0051 | 0.0237 | 0.0077 | 0.0284 | -0.0335 | -0.0237 | 0.0092 | -0.0124 | -0.0314 | 0.0165 | 0.0035 | -0.0025 | 0.0251 | -0.0158 | -0.0285 | -0.0295 | 0.0568 | -0.055 | -0.0472
7 | Cc1c2c(nn1C)CSCc1cc(n(C)n1)CSc1cc(c3ccccc3c1)OCCCc1c(C(=O)O)n(C)c3c-2c(Cl)ccc13 [AZD5991] + CC1(C)CCC(CN2CCN(c3ccc(C(=O)NS(=O)(=O)c4ccc(NCC5CCOCC5)c([N+](=O)[O-])c4)c(Oc4cnc5[nH]ccc5c4)c3)CC2)=C(c2ccc(Cl)cc2)C1 [Venetoclax] (first compound max 1 µM, 7x7, partner max 1 µM) | -0.0158 | -0.0063 | 0.0519 | 0.005 | 0.0195 | 0.136 | -0.0387 | 0.0382 | 0.0493 | 0.0031 | 0.0076 | -0.043 | -0.0426 | -0.0589 | 0.0139 | 0.035 | 0.0174 | 0.0312 | 0.0091
8 | Cc1c2c(nn1C)CSCc1cc(n(C)n1)CSc1cc(c3ccccc3c1)OCCCc1c(C(=O)O)n(C)c3c-2c(Cl)ccc13 [AZD5991] + CCN(CCO)CCCOc1ccc2c(Nc3cc(CC(=O)Nc4cccc(F)c4)[nH]n3)ncnc2c1 [AZD2811] (first compound max 1 µM, 7x7, partner max 1 µM) | 0.071 | 0.0227 | 0.0523 | 0.0561 | 0.162 | 0.0586 | 0.0307 | 0.263 | 0.0403 | -0.0093 | -0.0183 | -0.0986 | 0.0156 | -0.0905 | 0.0321 | 0.0412 | 0.0411 | 0.109 | 0.0457
9 | Cc1c2c(nn1C)CSCc1cc(n(C)n1)CSc1cc(c3ccccc3c1)OCCCc1c(C(=O)O)n(C)c3c-2c(Cl)ccc13 [AZD5991] + C[C@@H](Nc1cc(F)cc(F)c1)c1cc(C(=O)N(C)C)cc2c(=O)cc(N3CCOCC3)oc12 [AZD8186] (first compound max 1 µM, 7x7, partner max 3 µM) | -0.0076 | -0.0124 | -0.0476 | 0.0622 | 0.0217 | 0.002 | -0.0253 | 0.0234 | -0.0042 | -0.026 | -0.0611 | -0.0864 | -0.0449 | -0.0398 | 0.0152 | 0.0272 | 0.0131 | -0.0444 | -0.0141
10 | Cc1c2c(nn1C)CSCc1cc(n(C)n1)CSc1cc(c3ccccc3c1)OCCCc1c(C(=O)O)n(C)c3c-2c(Cl)ccc13 [AZD5991] + Cn1cnc2c(F)c(Nc3ccc(Br)cc3Cl)c(C(=O)NOCCO)cc21 [Selumetinib] (first compound max 1 µM, 7x7, partner max 3 µM) | 0.0176 | 0.0086 | 0.0099 | 0.01 | 0.0926 | 0.0926 | 0.0293 | 0.0545 | 0.012 | -0.0033 | -0.0633 | -0.0263 | -0.0171 | -0.0352 | 0.0052 | 0.0125 | 0.0727 | -0.0162 | 0.027
11 | CC(=O)Nc1cccc(-n2c(=O)n(C3CC3)c(=O)c3c(Nc4ccc(I)cc4F)n(C)c(=O)c(C)c32)c1 [Trametinib] + Cc1nc(-c2cn3c(n2)-c2ccc(-c4cnn(C(C)(C)C(N)=O)c4)cc2OCC3)n(C(C)C)n1 [Taselisib] (first compound max 1 µM, 7x7, partner max 10 µM) | 0.151 | 0.0783 | 0.241 | 0.0234 | 0.12 | 0.202 | 0.0549 | 0.0217 | 0.149 | 0.0464 | 0.0252 | 0.0409 | 0.056 | 0.04 | 0.0116 | 0.0185 | 0.107 | -0.0007 | 0.175
12 | CC1(C)CCC(CN2CCN(c3ccc(C(=O)NS(=O)(=O)c4ccc(NCC5CCOCC5)c([N+](=O)[O-])c4)c(Oc4cnc5[nH]ccc5c4)c3)CC2)=C(c2ccc(Cl)cc2)C1 [Venetoclax] + C1CN(CCC1(C(=O)N[C@@H](CCO)C2=CC=C(C=C2)Cl)N)C3=NC=NC4=C3C=CN4 [Capivasertib] (first compound max 1 µM, 7x7, partner max 3 µM) | -0.0299 | -0.0463 | 0.0096 | -0.0575 | -0.0231 | -0.0535 | -0.0449 | -0.0103 | -0.011 | -0.0585 | -0.0778 | -0.0664 | -0.0474 | -0.0424 | -0.0212 | -0.0544 | 0.0014 | 0.0036 | -0.0343
13 | CC1(C)CCC(CN2CCN(c3ccc(C(=O)NS(=O)(=O)c4ccc(NCC5CCOCC5)c([N+](=O)[O-])c4)c(Oc4cnc5[nH]ccc5c4)c3)CC2)=C(c2ccc(Cl)cc2)C1 [Venetoclax] + C=CCn1c(=O)c2cnc(Nc3ccc(N4CCN(C)CC4)cc3)nc2n1-c1cccc(C(C)(C)O)n1 [AZD1775] (first compound max 1 µM, partner max 1 µM) | -0.0212 | -0.0142 | 0.0933 | -0.0314 | -0.0049 | -0.0156 | 0.0053 | -0.0267 | 0.0683 | 0.0124 | 0.111 | -0.0095 | -0.0106 | -0.0942 | -0.0341 | -0.0203 | -0.0029 | 0.0734 | -0.0808
14 | CC1(C)CCC(CN2CCN(c3ccc(C(=O)NS(=O)(=O)c4ccc(NCC5CCOCC5)c([N+](=O)[O-])c4)c(Oc4cnc5[nH]ccc5c4)c3)CC2)=C(c2ccc(Cl)cc2)C1 [Venetoclax] + CCN(CCO)CCCOc1ccc2c(Nc3cc(CC(=O)Nc4cccc(F)c4)[nH]n3)ncnc2c1 [AZD2811] (first compound max 1 µM, 7x7, partner max 1 µM) | -0.035 | -0.0095 | 0.0141 | -0.0132 | -0.0129 | 0.0266 | -0.067 | 0.005 | 0.111 | -0.0368 | -0.0468 | -0.0608 | 0.0131 | -0.0389 | 0.0341 | -0.0241 | 0.0104 | 0.234 | -0.0272
